Measurements taken from US20230172958A1, “USE OF COMPOUNDS FOR TREATING VIRAL INFECTIONS” (priority 2020, published 2023).
pIC50: −log10 of the molar value. “Also recorded” adds a separate entry of the source. Where two headings read alike, the source gives them in different places.

Columns and labels:
SARS-CoV-2 [1] = test: Neutral Red reduction of virus-induced cytopathic effect (primary CPE assay) in Vero 76 cells; assay type: cell-based; conditions: Severe acute respiratory syndrome coronavirus 2, virus-inhibitory
SARS-CoV-2 [2] = test: Antiviral screening by qRT-PCR in VeroE6 cells; assay type: cell-based; conditions: Severe acute respiratory syndrome coronavirus 2, Vero C1008, 10 μM
Bacterial mutation study = test: Bacterial mutation study
Procedure: (§1) Various pre-clinical GLP (Good Laboratory Practice) and non-GLP studies were performed with the compound of Formula E. These included 7-day and 28- days studies on rats and dogs, acute toxicity in rats, mice and dogs. The effect of the compound of Formula E on respiratory function, nervous system and cardiovascular system, bacterial mutation, metabolism, CaCo2 permeability, protein binding and cytochrome effect was also studied.

[3] = system: Human Peripheral Blood Lymphocytes; test: MTT toxicity assay on normal cells; assay type: cell-based; conditions: 48 hours
Procedure: Toxicity studies of compounds of the present invention on normal cells The toxicity study was performed on Human Peripheral Blood Lymphocytes obtained differential centrifugation of defibrinated blood. MTT assay for compound of the present invention was performed to determine its toxicity. MTT assay is a simple and sensitive assay where, metabolic reducing activity of the cells is measured. It was carried out in the following manner.
A required volume of cell suspension was prepared as per the cell plating efficiency. 200 μl of prepared cell suspension was added in labelled 96 well plates and the plates were placed in an incubator for 18-24 hours at 37° C. and 5% CO2. Then, 2 μl of respective compound dilution was added and the plates were placed in the incubator for 48 hours at 37° C. and 5% CO2. The suspension was aspirated from the plates and 100 μl of working MTT solution (0.5 mg/ml MTT prepared from 5 mg/ml MTT stock in 1× complete media) was added. The plates were incubated in the incubator for 4 hours at 37° C. and 5% CO2. The plates were spinned down, supernatant removed, 200 μl DMSO was added, mixed gently and placed in the incubator for 10 minutes at 37° C. and 5% CO2. The absorbance at 570 nm was read and percentage viability and IC50 value of the compounds was calculated using regression analysis.

[4] = Pre-clinical GLP and non-GLP toxicity and safety studies; assay type: in vivo
Procedure: as §1

SARS-CoV-2 [5] = assay type: in vivo, golden Syrian hamster
[6] = Neutral Red toxicity assay, uninfected cultures; assay type: cell-based; conditions: African green monkey, Vero 76 cells (uninfected monolayers), cell-inhibitory
Procedure: Confluent or near-confluent cell culture monolayers of Vero 76 cells were prepared in 96-well disposable microplates the day before testing. Cells were maintained in MEM (Minimum Essential Medium Eagle) supplemented with 5% FBS (Fetal Bovine Serum). For antiviral assays the same medium was used but with FBS reduced to 2% and supplemented with 50-μg/ml gentamicin.
Compounds were dissolved in DMSO, saline or the diluent. […] The test compound was prepared at four serial log10 concentrations, usually 0.1, 1.0, 10, and 100 μg/ml or μM. Lower concentrations were used when insufficient compound was supplied. Five microwells were used per dilution: three for infected cultures and two for uninfected toxicity cultures. Controls for the experiment consisted of six microwells that were infected and not treated (virus controls) and six that were untreated and uninfected (cell controls) on every plate. A known active drug was tested in parallel as a positive control drug using the same method as was applied for test compounds. The positive control was tested with every test run.
Growth media was removed from the cells and the test compound was applied in 0.1 ml volume to wells at 2× concentration. Virus, normally at ˜60 CCID50 (50% cell culture infectious dose) in 0.1 ml volume is added to the wells designated for virus infection. Medium devoid of virus was placed in toxicity control wells and cell control wells. […] The plates were then stained with 0.011% neutral red for approximately two hours at 37° C. in a 5% CO2 incubator. The neutral red medium was removed by complete aspiration, and the cells may be rinsed 1× with phosphate buffered solution (PBS) to remove residual dye. The PBS was completely removed, and the incorporated neutral red was eluted with 50% Sorensen's citrate buffer/50% ethanol for at least 30 minutes. Neutral red dye penetrates into living cells, thus, the more intense the red color, the larger the number of viable cells present in the wells. The dye content in each well was quantified using a spectrophotometer at 540 nm wavelength. The dye content in each set of wells was converted to a percentage of dye present in untreated control wells using a Microsoft Excel computer-based spreadsheet and normalized based on the virus control. The 50% effective (EC50, virus-inhibitory) concentrations and 50% cytotoxic (CC50, cell-inhibitory) concentrations are then calculated by regression analysis. The quotient of CC50 divided by EC50 gives the selectivity index (SI) value.

SARS-CoV-2 [7] = test: Anti SARS-CoV-2 IC50 estimation by qRT-PCR in VeroE6 cells; assay type: cell-based; conditions: Severe acute respiratory syndrome coronavirus 2, Vero C1008; for IC50: VeroE6, MOI 0.01, 48 hours

With `COC1COC(Oc2ccc(-c3ccc4c(c3)OCO4)c3ccccc23)C(O)C1OC` (centres unmarked) [Compound of Formula E, 2-(1-(benzo[d][1,3]dioxol-5-yl)naphthalen-4-yloxy)-tetrahydro-4,5-dimethoxy-2H-pyran-3-ol] the EC50 (SARS-CoV-2 [1]) was 0.35 µg/mL, the inhibition at 10 µM (SARS-CoV-2 [2]; 24 hours post infection, E gene, read-out: % inhibition of virus replication 24 hours post infection E) was 75.4% and the inhibition at 10 µM (SARS-CoV-2 [2]; 24 hours post infection, N gene, read-out: % inhibition of virus replication 24 hours post infection N) was 81.3%. The inhibition at 10 µM (SARS-CoV-2 [2]; 48 hours post infection, E gene, read-out: % inhibition of virus replication 48 hours post infection E) was 99.5%, the inhibition at 10 µM (SARS-CoV-2 [2]; 48 hours post infection, N gene, read-out: % inhibition of virus replication 48 hours post infection N) was 99.7% and the mutagenicity (Bacterial mutation study) was “non-mutagenic”. The logP (physchem) was ~4, the “IC50 (μM)” value [3] was “No activity (Nontoxic)” and the “toxic or adverse effect at higher dose” value ([4]; 2000 mg/kg in rats, mice and dogs) was “did not show any toxic or adverse effect”. For the same compound, the “toxicity in pre-clinical studies” value ([4]; 7-day and 28-days studies on rats and dogs, acute toxicity in rats, mice and dogs) was “non-toxic”, the clastogenicity ([4]; in vivo) was “non-clastogenic” and the “effect on the respiratory, nervous and cardiovascular system” value ([4]; in vivo) was “no effect”. For the same compound, the “IL4 mRNA expression in splenocytes” value (SARS-CoV-2 [5]; across all the groups) was “dramatic inhibition”, the “body mass loss post infection” value (SARS-CoV-2 [5]; hamster, in vivo) was “did not lose weight post infection; also recorded: second best recovery; also recorded: marginal protection” and the “gross lung pneumonitis and inflammation, day 4 post challenge” value (SARS-CoV-2 [5]; hamster, in vivo) was “significantly lesser regions of pneumonitis and inflammation”. The “histological parameters and overall disease score (H&E)” value (SARS-CoV-2 [5]; hamster, in vivo) was “best protection”, the “histological protection (H&E)” value (SARS-CoV-2 [5]; hamster, in vivo) was “little, or no protection” and the “pneumonitis, alveolar epithelial injury and lung inflammation score (H&E)” value (SARS-CoV-2 [5]; hamster, in vivo) was “good reduction”. The “reduction in relative lung viral load (N2 gene)” value (SARS-CoV-2 [5]; hamster, in vivo) was 5 fold, the splenomegaly (SARS-CoV-2 [5]; hamster, in vivo) was “significant mitigation” and the spleen size (SARS-CoV-2 [5]; other drug groups (δI/200, δII/800, δIV/400)) was “little or no reduction”. The “overall protective efficacy against SARS-CoV-2 infection” value (SARS-CoV-2 [5]; pre-treatment with 400 mpk, compared to Remdesivir) was “decreased lung viral load and pneumonitis compared to Remdesivir”, the “IL17A mRNA expression in splenocytes” value (SARS-CoV-2 [5]; δI/200) was “inhibition” and the “INFγ mRNA expression in splenocytes” value (SARS-CoV-2 [5]; δI/200) was “highest induction”. The “IL17A mRNA expression in splenocytes” value (SARS-CoV-2 [5]; δIII/p400) was “inhibition”, the CC50 [6] was 2.5 µg/mL and the IC50 (SARS-CoV-2 [7]; qRT-PCR E gene, read-out: IC50 value (μM) E gene) was 0.571 µM. For the same compound, the IC50 (SARS-CoV-2 [7]; qRT-PCR N gene, read-out: IC50 value (μM) N gene) was 0.586 µM and the pIC50 (SARS-CoV-2 [7]; conclusion statement, read-out: anti-SARS-CoV-2 activity IC50) was > 5.00.
